Measurements taken from patent US9550739B2, “Molecules having certain pesticidal utilities, and intermediates, compositions, and processes related thereto” (priority 2014, dated 2017).

Columns and labels:
Format in all cases: in vivo
[1] = test system: Yellow Fever Mosquito (Aedes aegypti, AEDSAE) ("YFM"); details: about 1 day-old larvae, 4000 ppm master solution diluted, 3 days, room temperature
Description: Certain molecules disclosed in this document were tested against YFM using procedures described in the following paragraph. In the reporting of the results, the “YFM Rating Table” was used (See Table Section).
Master plates containing 400 μg of a molecule dissolved in 100 μL of dimethyl sulfoxide (DMSO) (equivalent to a 4000 ppm solution) are used. A master plate of assembled molecules contains 15 μL per well. To this plate, 135 μL of a 90:10 water:acetone mixture is added to each well. A robot (Biomek® NXP Laboratory Automation Workstation) is programmed to dispense 15 μL aspirations from the master plate into an empty 96-well shallow plate (“daughter” plate). There are 6 reps (“daughter” plates) created per master. The created daughter plates are then immediately infested with YFM larvae.
The day before plates are to be treated, mosquito eggs are placed in Millipore water containing liver powder to begin hatching (4 g. into 400 mL). After the daughter plates are created using the robot, they are infested with 220 μL of the liver powder/larval mosquito mixture (about 1 day-old larvae). After plates are infested with mosquito larvae, a non-evaporative lid is used to cover the plate to reduce drying. Plates are held at room temperature for 3 days prior to grading. After 3 days, each well is observed and scored based on mortality.

[2] = test system: Beet Armyworm (Spodoptera exigua, LAPHEG) ("BAW"); experiment: Bioassays on Beet Armyworm (BAW), 128-well diet tray assay; details: Spodoptera exigua, 168 h; second instar BAW larvae, 50 μg/cm^2 on artificial diet, five to seven days, 25° C.; read-out: BAW % Control (or Mortality) rating
Description: (§1) Certain molecules disclosed in this document were tested against BAW and CEW using procedures described in the following examples. In the reporting of the results, the “BAW & CL Rating Table” was used (See Table Section).
Bioassays on BAW were conducted using a 128-well diet tray assay. one to five second instar BAW larvae were placed in each well (3 mL) of the diet tray that had been previously filled with 1 mL of artificial diet to which 50 μg/cm^2 of the test compound (dissolved in 50 μL of 90:10 acetone-water mixture) had been applied (to each of eight wells) and then allowed to dry. Trays were covered with a clear self-adhesive cover and held at 25° C., 14:10 light-dark for five to seven days. Percent mortality was recorded for the larvae in each well; activity in the eight wells was then averaged. The results are indicated in the table entitled “Table ABC: Biological Results” (See Table Section).

[3] = test system: Cabbage Looper (Trichoplusia ni, TRIPNI) ("CL"); experiment: Bioassays on Cabbage Looper (CL), 128-well diet tray assay; details: Trichoplusia ni, 168 h, read-out: CL % Control (or Mortality) rating
Description: as §1
Bioassays on CL were conducted using a 128-well diet tray assay. one to five second instar CL larvae were placed in each well (3 mL) of the diet tray that had been previously filled with 1 mL of artificial diet to which 50 μg/cm^2 of the test compound (dissolved in 50 μL of 90:10 acetone-water mixture) had been applied (to each of eight wells) and then allowed to dry. Trays were covered with a clear self-adhesive cover and held at 25° C., 14:10 light-dark for five to seven days. Percent mortality was recorded for the larvae in each well; activity in the eight wells was then averaged. The results are indicated in the table entitled “Table ABC: Biological Results” (See Table Section).

With `Cc1ccccc1-c1cc(C(=O)Nc2ccc(-c3ncn(-c4ccc(OC(F)(F)F)cc4)n3)cc2)ccc1Cl` [F32, 6-Chloro-2′-methyl-N-(4-(1-(4-(trifluoromethoxy)phenyl)-1H-1,2,4-triazol-3-yl)phenyl)-[1,1′-biphenyl]-3-carboxamide] the “YFM % Control (or Mortality) rating” value [1] was “D (No activity noticed in this bioassay)”, the mortality at 50 µg/cm2 [2] was 0% and the mortality at 50 µg/cm2 [3] was 50 to 100%.

`COc1ccccc1-c1cccc(C(=O)Nc2ccc(-c3ncn(-c4ccc(OC(C)C)cc4)n3)cc2)c1` [F5, N-(4-(1-(4-isopropoxyphenyl)-1H-1,2,4-triazol-3-yl)phenyl)-2′-methoxy-[1,1′-biphenyl]-3-carboxamide] was tested, and the “YFM % Control (or Mortality) rating” value [1] was “B (More than 0-Less than 80)”, the mortality at 50 µg/cm2 [2] was 50 to 100% and the mortality at 50 µg/cm2 [3] was 50 to 100%.

In the case of `COc1ccc(C(=O)Nc2ccc(-c3ncn(-c4ccc(OC(F)(F)C(F)(F)F)cc4)n3)cc2)cc1-c1ccccc1` [F13, 6-Methoxy-N-(4-(1-(4-(perfluoroethoxy)phenyl)-1H-1,2,4-triazol-3-yl)phenyl)-[1,1′-biphenyl]-3-carboxamide], the “YFM % Control (or Mortality) rating” value [1] is reported as “D (No activity noticed in this bioassay)”, the mortality at 50 µg/cm2 [2] is reported as 0% and the mortality at 50 µg/cm2 [3] is reported as 50 to 100%.

With `COc1ccc(C(=O)Nc2ccc(-c3ncn(-c4ccc(C(F)(F)F)cc4)n3)cc2)cc1-c1ccccc1` [F61, 6-Methoxy-N-(4-(1-(4-(trifluoromethyl)phenyl)-1H-1,2,4-triazol-3-yl)phenyl)-[1,1′-biphenyl]-3-carboxamide] the “YFM % Control (or Mortality) rating” value [1] was “A (80-100)”, the mortality at 50 µg/cm2 [2] was 50 to 100% and the mortality at 50 µg/cm2 [3] was 50 to 100%.

For `Cc1ccccc1-c1cccc(C(=O)Nc2ccc(-c3ncn(-c4ccc(OC(F)(F)C(F)(F)F)cc4)n3)cc2)c1` [F35, 2′-Methyl-N-(4-(1-(4-(perfluoroethoxy)phenyl)-1H-1,2,4-triazol-3-yl)phenyl)-[1,1′-biphenyl]-3-carboxamide], the “YFM % Control (or Mortality) rating” value [1] was “D (No activity noticed in this bioassay)”, the mortality at 50 µg/cm2 [2] was 50 to 100% and the mortality at 50 µg/cm2 [3] was 50 to 100%.

In the case of `O=C(Nc1ccc(-c2ncn(-c3ccc(OC(F)(F)F)cc3)n2)cc1)c1cccc(-c2ccccc2OC(F)(F)F)c1` [F1, 2′-(Trifluoromethoxy)-N-(4-(1-(4-(trifluoromethoxy)phenyl)-1H-1,2,4-triazol-3-yl)phenyl)-[1,1′-biphenyl]-3-carboxamide], the “YFM % Control (or Mortality) rating” value [1] is reported as “D (No activity noticed in this bioassay)”, the mortality at 50 µg/cm2 [2] is reported as 0% and the mortality at 50 µg/cm2 [3] is reported as 50 to 100%.

With `COc1ccccc1-c1cc(C(=O)Nc2ccc(-c3ncn(-c4ccc(OC(C)C)cc4)n3)cc2)ccc1F` [F4, 6-Fluoro-N-(4-(1-(4-isopropoxyphenyl)-1H-1,2,4-triazol-3-yl)phenyl)-2′-methoxy-[1,1′-biphenyl]-3-carboxamide] the “YFM % Control (or Mortality) rating” value [1] was “B (More than 0-Less than 80)”, the mortality at 50 µg/cm2 [2] was 50 to 100% and the mortality at 50 µg/cm2 [3] was 50 to 100%.

`Cc1ccccc1-c1cc(F)cc(C(=O)Nc2ccc(-c3ncn(-c4ccc(OC(F)(F)C(F)(F)F)cc4)n3)cc2)c1` [F42, 5-Fluoro-2′-methyl-N-(4-(1-(4-(perfluoroethoxy)phenyl)-1H-1,2,4-triazol-3-yl)phenyl)-[1,1′-biphenyl]-3-carboxamide] was tested, and the “YFM % Control (or Mortality) rating” value [1] was “D (No activity noticed in this bioassay)”, the mortality at 50 µg/cm2 [2] was 0% and the mortality at 50 µg/cm2 [3] was 50 to 100%.

`O=C(Nc1ccc(-c2ncn(-c3ccc(OC(F)(F)F)cc3)n2)cc1)c1cccc(-c2ccccc2OCc2ccccc2)c1` [F3, 2′-(Benzyloxy)-N-(4-(1-(4-(trifluoromethoxy)phenyl)-1H-1,2,4-triazol-3-yl)phenyl)-[1,1′-biphenyl]-3-carboxamide] was tested, and the “YFM % Control (or Mortality) rating” value [1] was “D (No activity noticed in this bioassay)”, the mortality at 50 µg/cm2 [2] was 0% and the mortality at 50 µg/cm2 [3] was 0%.

With `Cc1cccc(C)c1-c1cccc(C(=O)Nc2ccc(-c3ncn(-c4ccc(OC(F)(F)C(F)(F)F)cc4)n3)cc2)c1` [F31, 2′,6′-Dimethyl-N-(4-(1-(4-(perfluoroethoxy)phenyl)-1H-1,2,4-triazol-3-yl)phenyl)-[1,1′-biphenyl]-3-carboxamide] the “YFM % Control (or Mortality) rating” value [1] was “D (No activity noticed in this bioassay)”, the mortality at 50 µg/cm2 [2] was 50 to 100% and the mortality at 50 µg/cm2 [3] was 50 to 100%.

With `CN(C)c1ccccc1-c1cccc(C(=O)Nc2ccc(-c3ncn(-c4ccc(OC(F)(F)F)cc4)n3)cc2)c1` [F10, 2′-(Dimethylamino)-N-(4-(1-(4-(trifluoromethoxy)phenyl)-1H-1,2,4-triazol-3-yl)phenyl)-[1,1′-biphenyl]-3-carboxamide] the “YFM % Control (or Mortality) rating” value [1] was “B (More than 0-Less than 80)”, the mortality at 50 µg/cm2 [2] was 50 to 100% and the mortality at 50 µg/cm2 [3] was 50 to 100%.

With `O=C(Nc1ccc(-c2ncn(-c3ccc(OC(F)(F)C(F)(F)F)cc3)n2)cc1)c1cccc(-c2ccccc2)c1` [F45, N-(4-(1-(4-(perfluoroethoxy)phenyl)-1H-1,2,4-triazol-3-yl)phenyl)-[1,1′-biphenyl]-3-carboxamide] the “YFM % Control (or Mortality) rating” value [1] was “D (No activity noticed in this bioassay)”, the mortality at 50 µg/cm2 [2] was 50 to 100% and the mortality at 50 µg/cm2 [3] was 50 to 100%.

In the case of `COc1ccccc1-c1cccc(C(=O)NCCc2ccc(-c3ncn(-c4ccc(OC(F)(F)F)cc4)n3)cc2)c1` [F50, 2′-methoxy-N-(4-(1-(4-(trifluoromethoxy)phenyl)-1H-1,2,4-triazol-3-yl)phenethyl)-[1,1′-biphenyl]-3-carboxamide], the “YFM % Control (or Mortality) rating” value [1] is reported as “D (No activity noticed in this bioassay)”, the mortality at 50 µg/cm2 [2] is reported as 50 to 100% and the mortality at 50 µg/cm2 [3] is reported as 50 to 100%.

With `O=C(Nc1ccc(-c2ncn(-c3ccc(OC(F)(F)F)cc3)n2)cc1)c1ccc(F)c(-c2ccccc2F)c1` [F28, 2′,6-Difluoro-N-(4-(1-(4-(trifluoromethoxy)phenyl)-1H-1,2,4-triazol-3-yl)phenyl)-[1,1′-biphenyl]-3-carboxamide] the “YFM % Control (or Mortality) rating” value [1] was “A (80-100)”, the mortality at 50 µg/cm2 [2] was 50 to 100% and the mortality at 50 µg/cm2 [3] was 50 to 100%.

With `COc1ccccc1-c1cccc(C(=S)Nc2ccc(-c3ncn(-c4ccc(OC(F)(F)F)cc4)n3)cc2)c1` [F21, 2′-Methoxy-N-(4-(1-(4-(trifluoromethoxy)phenyl)-1H-1,2,4-triazol-3-yl)phenyl)-[1,1′-biphenyl]-3-carbothioamide] the “YFM % Control (or Mortality) rating” value [1] was “A (80-100)”, the mortality at 50 µg/cm2 [2] was 50 to 100% and the mortality at 50 µg/cm2 [3] was 50 to 100%.

`O=C(Nc1ccc(-c2ncn(-c3ccc(OC(F)(F)F)cc3)n2)cc1)c1ccc(Cl)c(-c2ccccc2)c1` [F34, 6-Chloro-N-(4-(1-(4-(trifluoromethoxy)phenyl)-1H-1,2,4-triazol-3-yl)phenyl)-[1,1′-biphenyl]-3-carboxamide] was tested, and the “YFM % Control (or Mortality) rating” value [1] was “D (No activity noticed in this bioassay)”, the mortality at 50 µg/cm2 [2] was 50 to 100% and the mortality at 50 µg/cm2 [3] was 50 to 100%.

In the case of `Cc1ccccc1-c1cc(F)cc(C(=O)Nc2ccc(-c3ncn(-c4ccc(OC(F)(F)F)cc4)n3)cc2)c1` [F39, 5-Fluoro-2′-methyl-N-(4-(1-(4-(trifluoromethoxy)phenyl)-1H-1,2,4-triazol-3-yl)phenyl)-[1,1′-biphenyl]-3-carboxamide], the “YFM % Control (or Mortality) rating” value [1] is reported as “D (No activity noticed in this bioassay)”, the mortality at 50 µg/cm2 [2] is reported as 50 to 100% and the mortality at 50 µg/cm2 [3] is reported as 50 to 100%.

`Cc1ccccc1-c1cccc(C(=O)Nc2ccc(-c3ncn(-c4ccc(OC(F)(F)F)cc4)n3)cc2)n1` [F33, 6-(o-Tolyl)-N-(4-(1-(4-(trifluoromethoxy)phenyl)-1H-1,2,4-triazol-3-yl)phenyl)picolinamide] was tested, and the “YFM % Control (or Mortality) rating” value [1] was “D (No activity noticed in this bioassay)”, the mortality at 50 µg/cm2 [2] was 0% and the mortality at 50 µg/cm2 [3] was 50 to 100%.

With `Cc1ccccc1-c1cc(F)cc(C(=O)N(C)c2ccc(-c3ncn(-c4ccc(OC(F)(F)C(F)(F)F)cc4)n3)cc2)c1` [F29, 5-fluoro-N,2′-dimethyl-N-(4-(1-(4-(perfluoroethoxy)phenyl)-1H-1,2,4-triazol-3-yl)phenyl)-[1,1′-biphenyl]-3-carboxamide] the “YFM % Control (or Mortality) rating” value [1] was “D (No activity noticed in this bioassay)”, the mortality at 50 µg/cm2 [2] was 50 to 100% and the mortality at 50 µg/cm2 [3] was 0%.
